Data published in patent US20230097226A1, “GENERATING AORTA-GONAD-MESONEPHROS-LIKE HEMATOPOIETIC CELLS FROM HUMAN PLURIPOTENT STEM CELLS UNDER A DEFINED CONDITION” (Purdue Research Foundation, priority 2020, published 2023).

Legend:
Type in all cases: cell-based, human
[1] = tested on: Wnt signaling; experiment: RT-PCR of day 6 HE samples (WNT3A, AXIN2) and 7TGP Wnt reporter line; settings: for transcriptional activity of endogenous Wnt signaling: H9 7TGP Wnt reporter line, day 6, eGFP flow cytometry; for expression of WNT3A and AXIN2: RT-PCR, day 6 HE samples
Method: Cells cultured on 24-well plate were collected and lysed in 500 μL TRIzol™ reagent (Invitrogen). Total RNA were then prepared with the Direct-zol RNA miniprep kit (Zymo) with in-column DNase treatment following the manufacture's instruction. cDNA was reverse transcribed from 1 μg RNA with ProtoScript First Strand cDNA Synthesis Kit (NEB) and used for RT-PCR with GoTaq Green Master Mix (Promega).

[2] = tested on: hPSC-derived hemogenic endothelium; experiment: Hematopoietic specification of hPSC-derived hemogenic endothelium, flow cytometry for CD45; settings: for generation of CD45+ hematopoietic cells: screening of chemicals and cytokines, feeder-free conditions, 19-9-11 iPSC-derived HE; for yield of resulting stem cells: day 12, differentiation factor applied at hematopoietic specification stage; for yield and purity of CD45+ hematopoietic cells on retrieval from the differentiation medium: day 15 cultures, SCF and FLT3L withdrawn; for efficiency of generating AGM-like hematopoietic stem cells when used in place of SB431542: Day 4-6 of differentiation
Method: While OP9-DLL4 stromal cells have been used to efficiently induce hematopoietic and immune cells from our small-molecule induced HE [32], the undefined nature of feeder cells may lead to inaccurate investigation of signaling pathways during hematopoiesis. Thus, to develop a chemically-defined hematopoietic specification platform, screening of known chemicals and cytokines was performed on our hPSC-derived AGM-like HE under feeder-free conditions (FIG. 2A). […] Wnt-059 and SB-induced hematopoiesis were also applicable to H9 and 6-9-9 hPSCs (FIG. 2E).
19-9-11, 19-9-7, 6-9-9, H1, H9 and H13 were obtained from WiCell and maintained on Matrigel- or iMatrix 511-coated plates in mTeSR plus or mTeSR1 medium according to a previously published method. RUES2 were kindly provided by Dr. Ali H. Brivanlou at the Rockefeller University. The Kolf2 and CT2 data were acquired in Dr. Yang Yang's lab and Dr. Ourania Andrisani's lab at Purdue. H9 7TGFβ Wnt reporter and 19-9-11 ischcat-1 as well as ischcat-2 lines were kindly provided by Dr. Sean Palecek at University of Wisconsin-Madison. To make hematopoietic cells, hPSCs were dissociated with 1 mM EDTA and seeded onto iMatrix 511 or Matrigel-coated 6-, 12- or 24-well plate at a cell density between 10,000 and 80,000 cell/cm^2 in mTeSR plus or mTeSR1 medium with 5 μM Y27632 for 24 hours (day-1). At day 0, cells were treated with 6 μM CHIR99021 (CHIR) in DMEM medium supplemented with 100 ug/ml ascorbic acid (DMEM/Vc), followed by a medium change with LasR basal medium at day 1, day 2 and day 3. For female hPSC lines, 50 ng/mL VEGF was added to the medium from day 2 to day 4. At day 4, medium was replaced by Stemline II medium (Sigma) supplemented 10 μM SB431542. After 2 days, SB431542-containing medium was aspirated and cells were maintained in Stemline II medium with or without 50 ng/mL SCF and FLT3L. At day 9 and every 2 to 3 days afterwards, aspirate half medium and add fresh Stemline II medium with or without SCF/FLT3L until analysis. Other media used to induce hematopoietic cells were illustrated in FIG. 8B.
Floating hematopoietic cells were gently pipetted and filtered through a 70 or 100 μm strainer sitting on a 50 ml tube. The cells were then pelleted by centrifugation and washed once in PBS−/−solution with 1% bovine serum albumin (BSA). The cells were stained with appropriate conjugated antibodies (Table 1) for 25 mins at room temperature in dark, and analyzed in Accuri C6 plus flow cytometer (Beckton Dickinson) after washing once with BSA-containing PBS−/−solution. FlowJo software was used to process collected flow data.

[3] = tested on: hPSCs; experiment: Hemogenic endothelium differentiation of hPSCs, flow cytometry and immunostaining for CD34/SOX17; settings: early CHIR treatment; day 5 cultures
Excerpt: Producing hemogenic endothelium (HE) from hPSCs, marked by the expression of typical endothelial marker VE-cadherin, CD31, and CD34, is a vital step towards hematopoietic cell generation. We've previously developed a robust protocol to generate homogenous CD34+CD31+HE from hPSCs via small-molecule activation of Wnt signaling (FIG. 1A-B). Since simultaneous modulation of Wnt and Activin signaling yields aorta-like SOX17+ vessels in AGM that give rise to hematopoietic cells, we speculated that our small molecule-induced CD34+CD31+ cells are also SOX17+, which was confirmed by flow cytometry and immunostaining analysis of SOX17 expression (FIG. 1C-D). […] Importantly, the resulting CD34+SOX17+AGM-like HE didn't express CD235a, markers of primitive hematopoiesis.
19-9-11, 19-9-7, 6-9-9, H1, H9 and H13 were obtained from WiCell and maintained on Matrigel- or iMatrix 511-coated plates in mTeSR plus or mTeSR1 medium according to a previously published method. RUES2 were kindly provided by Dr. Ali H. Brivanlou at the Rockefeller University. […]
Floating hematopoietic cells were gently pipetted and filtered through a 70 or 100 μm strainer sitting on a 50 ml tube. […] The cells were stained with appropriate conjugated antibodies (Table 1) for 25 mins at room temperature in dark, and analyzed in Accuri C6 plus flow cytometer (Beckton Dickinson) after washing once with BSA-containing PBS−/−solution. […]

Molecule: Cc1cc(-c2ccc(CC(=O)Nc3ccc(-c4cccnc4)cc3)cc2)ccn1 [Wnt-059]
- transcriptional activity of endogenous Wnt signaling [1]: low transcriptional activity
- expression of WNT3A and AXIN2 [1]: low expression
- generation of CD45+ hematopoietic cells [2]: significantly induced

Molecule: Cc1c[nH]c(-c2cnc(NCCNc3ccc(C#N)cn3)nc2-c2ccc(Cl)cc2Cl)n1 [CHIR99021]
- CD34+SOX17+ population obtained [3]: homogenous CD34+SOX17+ population
- effect on hematopoiesis induced by SB ([2]; activation of Wnt signaling together with SB): blocked

Molecule: thrombopoietin [TPO]
- promotion of hematopoietic cell production [2]: work well
- yield of resulting stem cells [2]: 30.4%

Molecule: stem cell factor [SCF]
- yield and purity of CD45+ hematopoietic cells on retrieval from the differentiation medium [2]: reduced both the yield and purity

Molecule: heparin
- promotion of hematopoietic cell production [2]: work well
- yield of resulting stem cells [2]: 20.6%

Molecule: NC(=O)c1ccc(-c2nc(-c3ccc4c(c3)OCO4)c(-c3ccccn3)[nH]2)cc1 [SB431542]
- transcriptional activity of endogenous Wnt signaling [1]: low transcriptional activity
- expression of WNT3A and AXIN2 [1]: low expression
- CD45+ hematopoietic cells ([2]; SB treatment day 4 to 6, read on day 12, 19-9-11 iPSCs): more than 40%
- yield of resulting stem cells [2]: 40.9%
- generation of CD45+ hematopoietic cells [2]: significantly enhanced

B1: FMS-like tyrosine kinase 3 ligand (protein, UniProt P49771 27-235, looked up)
Fms-related tyrosine kinase 3 …: TQDCSFQHSPISSDFAVKIRELSDYLLQDYPVTVASNLQDEELCGGLWRLVLAQRWMERLKTVAGSKMQGLLERVNTEIHFVTKCAFQPPPSCLRFVQTNISRLLQETSEQLVALKPWITRQNFSRCLELQCQPDSSTLPPPWSPRPLEATAPTAPQPPLLLLLLLPVGLLLLAAAWCLHWQRTRRRTPRPGEQVPPVPSPQDLLLVEH
notes: Recombinant Human Flt3-Ligand, Peprotech #300-19
- yield and purity of CD45+ hematopoietic cells on retrieval from the differentiation medium [2]: reduced both the yield and purity

B2: IL-16: cytokine that could be used in place of SB431542, lower efficiency (protein, UniProt Q14005 1212-1332, looked up)
Interleukin-16: SAASASAASDVSVESTAEATVCTVTLEKMSAGLGFSLEGGKGSLHGDKPLTINRIFKGAASEQSETVQPGDEILQLGGTAMQGLTRFEAWNIIKALPDGPVTIVIRRKSLQSKETTAAGDS
- efficiency of generating AGM-like hematopoietic stem cells when used in place of SB431542 [2]: lower efficiency

B3: colony-stimulating factor 3 (protein, UniProt P09919 31-207, looked up)
Granulocyte …: TPLGPASSLPQSFLLKCLEQVRKIQGDGAALQEKLVSECATYKLCHPEELVLLGHSLGIPWAPLSSCPSQALQLAGCLSQLHSGLFLYQGLLQALEGISPELGPTLDTLQLDVADFATTIWQQMEELGMAPALQPTQGAMPAFASAFQRRAGGVLVASHLQSFLEVSYRVLRHLAQP
- efficiency of generating AGM-like hematopoietic stem cells when used in place of SB431542 [2]: lower efficiency
